Source: ChEMBL document CHEMBL1201862, “PubChem BioAssay data set” (2004)
Activity calls are given as the source filed them.

Tests used:
[1] = target: T1, RNA-binding protein pos-1 (Caenorhabditis elegans, UniProt G5EF15); test: inhibitors of POS-1/mex-3 RNA binding, dose response, biochemical, fluorescence polarization (AID 1964);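 note: purified POS-1 fused to maltose binding protein made in E. coli; potency of compounds blocking POS-1 binding to fluorescent RNA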
T1 sequence (G5EF15 whole entry): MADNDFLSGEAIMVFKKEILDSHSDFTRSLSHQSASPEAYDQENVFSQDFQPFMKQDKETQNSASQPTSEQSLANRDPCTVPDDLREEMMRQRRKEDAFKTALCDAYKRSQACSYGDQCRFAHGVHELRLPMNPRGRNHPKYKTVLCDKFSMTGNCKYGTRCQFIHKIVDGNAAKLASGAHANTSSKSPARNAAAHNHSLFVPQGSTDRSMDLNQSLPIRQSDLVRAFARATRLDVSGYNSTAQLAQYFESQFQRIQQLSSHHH

[2] = target: T2, Zinc finger protein mex-5 (Caenorhabditis elegans, UniProt Q9XUB2); test: MEX-5/TCR-2 RNA interaction inhibitors, dose response, biochemical, C. elegans, fluorescence polarization (AID 1960)
T2 sequence (Q9XUB2 whole entry): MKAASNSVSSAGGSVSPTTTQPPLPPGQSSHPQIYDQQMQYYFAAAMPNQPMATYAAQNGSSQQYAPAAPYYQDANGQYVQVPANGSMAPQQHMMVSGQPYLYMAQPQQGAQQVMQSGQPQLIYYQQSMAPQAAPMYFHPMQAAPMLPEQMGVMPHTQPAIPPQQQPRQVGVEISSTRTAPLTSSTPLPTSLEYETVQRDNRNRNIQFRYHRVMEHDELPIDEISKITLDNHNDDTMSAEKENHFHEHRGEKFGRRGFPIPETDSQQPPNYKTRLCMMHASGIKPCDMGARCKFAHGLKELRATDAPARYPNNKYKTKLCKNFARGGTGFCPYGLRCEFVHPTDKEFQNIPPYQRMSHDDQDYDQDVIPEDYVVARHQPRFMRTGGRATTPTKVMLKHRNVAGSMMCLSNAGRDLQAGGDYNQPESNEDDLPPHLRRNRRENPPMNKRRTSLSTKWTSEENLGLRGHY

[3] = cytotoxicity in HEK-293T cells, dose response, cytotoxicity control for BCR NF-kB inhibitor project, luminescence, B-cell screen hits (AID 489021); assay type: functional, cell-based;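 note: HEK-293T cells carrying an NF-kB luciferase reporter; cells exposed to compound for about 14 hours before viability readout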
[4] = system: HEK293; test: NOD1 signaling inhibitors, primary screen, cell-based, luminescence, uHTS (AID 1578); assay type: functional; conditions: Homo sapiens
[5] = system: HEK293; test: cells; assay type: functional, cell-based; conditions: Homo sapiens
[6] = system: HEK293; test: cells; assay type: functional, cell-based; conditions: Homo sapiens; remark: listed apart in the source
[7] = target: Nucleotide-binding oligomerization domain-containing protein 2 (Homo sapiens, UniProt Q9HC29); test: NOD2 signaling inhibitors, cell-based, luminescence, uHTS, HEK293 (AID 1566); assay type: functional
[8] = system: HEK293; test: NOD2 signaling inhibitors in MDP-stimulated cells, cell-based, uHTS, luminescence (AID 2001); assay type: functional; conditions: Homo sapiens
[9] = system: HEK293; test: cells; assay type: functional, cell-based; conditions: Homo sapiens; remark: listed apart in the source
[10] = inhibitors of firefly luciferase expression or activity, dose response, H4 neuroglioma cells, luminescence (AID 1990); assay type: functional, cell-based
[11] = Luminescence Cell-Based Dose Response HTS to Identify Inhibitors of 5'UTR Stem-Loop Driven Prion Protein mRNA Translation in H4 Neuroglioblastoma Cells. [Related pubchem assays: 1827 (Project Summary), 1813 (Primary HTS)]; assay type: functional
[12] = inhibitors of SNCA 5'UTR-driven reporter translation, confirmation, H4 neuroglioma cells, luminescence (AID 1988); assay type: functional, cell-based
[13] = target: T3, Leucine aminopeptidase (Plasmodium falciparum 3D7, UniProt Q8IL11); test: P. falciparum M17LAP inhibitors, primary screen, biochemical, fluorogenic H-Leu-NHMec substrate, 1536-well (AID 1619); assay type: functional
T3 sequence (Q8IL11 whole entry): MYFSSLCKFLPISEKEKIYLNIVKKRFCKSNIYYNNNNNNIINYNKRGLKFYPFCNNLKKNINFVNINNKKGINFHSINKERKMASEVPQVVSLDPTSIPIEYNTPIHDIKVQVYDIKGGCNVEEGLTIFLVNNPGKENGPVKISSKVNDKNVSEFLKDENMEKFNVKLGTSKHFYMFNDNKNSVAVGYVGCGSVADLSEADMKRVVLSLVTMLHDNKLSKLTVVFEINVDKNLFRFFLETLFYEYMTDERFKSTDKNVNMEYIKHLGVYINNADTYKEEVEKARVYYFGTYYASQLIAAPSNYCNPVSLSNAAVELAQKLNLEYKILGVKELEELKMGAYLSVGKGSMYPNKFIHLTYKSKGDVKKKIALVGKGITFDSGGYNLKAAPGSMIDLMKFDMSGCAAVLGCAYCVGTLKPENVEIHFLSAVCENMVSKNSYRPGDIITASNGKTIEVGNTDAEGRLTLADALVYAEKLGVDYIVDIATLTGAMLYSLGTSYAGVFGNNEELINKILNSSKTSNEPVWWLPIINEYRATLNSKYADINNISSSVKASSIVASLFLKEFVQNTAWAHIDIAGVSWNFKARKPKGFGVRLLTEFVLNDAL

[14] = Luminescence Cell-Based Dose Confirmation HTS to Identify Activators of 5'UTR Stem-Loop Driven Alpha-Synuclein mRNA Translation in H4 Neuroglioblastoma Cells. [Related pubchem assays: 1829 (Project Summary), 1814 (Primary HTS)]; assay type: functional
[15] = Luminescence Cell-Based Dose Response HTS to Identify Activators of Luciferase Translation or Activity in H4 […] Cells. [Related pubchem assays: 1829 (Project Summary), 1814 (Primary HTS)]; assay type: functional
[16] = system: H4; test: Luminescence Cell-Based Dose Response HTS to Identify Activators of 5'UTR Stem-Loop Driven Prion Protein mRNA Translation in H4 Neuroglioblastoma Cells. [Related pubchem assays: 1829 (Project Summary), 1814 (Primary HTS)]; assay type: functional; conditions: Homo sapiens
[17] = THP-1 cell cytotoxicity, dose response, cytotoxicity control for non-replicating M. tuberculosis project (AID 489025); assay type: functional
[18] = HepG2 cell cytotoxicity, dose response, cytotoxicity control for non-replicating M. tuberculosis project (AID 489018); assay type: functional; conditions: Mycobacterium tuberculosis
[19] = Vero E6 cell cytotoxicity, dose response, cytotoxicity control for non-replicating M. tuberculosis project, secondary assay (AID 492998); assay type: functional, VeroE6; conditions: Vero C1008
[20] = cells; assay type: functional
[21] = target: T4, DNA repair and recombination protein RAD54-like (Homo sapiens, UniProt Q92698); test: inhibitors of human RAD54 branch migration, confirmation, biochemical, fluorescence, cherry-picked samples, dose series (AID 651657); assay type: functional
T4 sequence (Q92698 whole entry): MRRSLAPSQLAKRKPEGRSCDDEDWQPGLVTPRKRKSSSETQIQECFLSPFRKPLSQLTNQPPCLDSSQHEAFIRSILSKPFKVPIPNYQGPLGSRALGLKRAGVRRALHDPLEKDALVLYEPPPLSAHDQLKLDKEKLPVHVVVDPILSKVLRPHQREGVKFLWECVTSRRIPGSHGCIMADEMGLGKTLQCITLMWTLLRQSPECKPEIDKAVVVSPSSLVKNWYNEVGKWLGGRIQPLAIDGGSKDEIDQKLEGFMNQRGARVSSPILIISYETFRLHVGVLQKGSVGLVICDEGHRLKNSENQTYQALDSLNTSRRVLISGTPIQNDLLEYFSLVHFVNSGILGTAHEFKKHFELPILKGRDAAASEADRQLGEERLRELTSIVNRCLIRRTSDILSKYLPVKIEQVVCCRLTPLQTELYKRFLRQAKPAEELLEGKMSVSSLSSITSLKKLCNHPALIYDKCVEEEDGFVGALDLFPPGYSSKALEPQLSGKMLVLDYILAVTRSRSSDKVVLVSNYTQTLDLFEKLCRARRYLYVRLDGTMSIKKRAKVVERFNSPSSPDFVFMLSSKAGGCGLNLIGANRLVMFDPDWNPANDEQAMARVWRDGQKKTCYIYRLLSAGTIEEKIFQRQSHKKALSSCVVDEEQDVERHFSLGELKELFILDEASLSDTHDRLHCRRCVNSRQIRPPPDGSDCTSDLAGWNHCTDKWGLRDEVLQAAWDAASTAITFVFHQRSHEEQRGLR

[22] = target: Voltage-dependent T-type calcium channel subunit alpha-1H (Homo sapiens, UniProt O95180); assay type: functional;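 note: channel activity triggered by adding a high calcium stimulation buffer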
[23] = target: Troponin, cardiac muscle (Homo sapiens, UniProt P19429+P45379+P63316); test: Fluorescence-based biochemical high throughput dose response assay for activators of the calcium sensitivity of cardiac Regulated Thin Filaments (RTF). [Related pubchem assays (depositor defined):AID493008, AID493018, AID504382, AID504383]; assay type: protein-complex assay
[24] = growth suppression of PTEN-null colon cells, dose response, cell-based, HCT116 PTEN knockout (AID 1047); assay type: functional;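 note: HCT116 colon tumor cells with PTEN knocked out; cells exposed to compound for 60 hours before readout; potency for loss of cell viability measured by luminescence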
[25] = growth suppression of beta-catenin-knockout colon cells, dose response, cell-based, HCT116, human colon tumor (AID 1045); assay type: functional;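 note: HCT116 colon tumor cells with beta catenin knocked out; cells exposed to compound for 60 hours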
[26] = Shn3 3'UTR reporter inhibitors, dose response, cell-based, Clone20 osteoblasts, firefly luciferase, cherry-picked (AID 624132); assay type: functional;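 note: firefly luciferase luminescence from reporter carrying the Shn3 3'UTR in osteoblasts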
[27] = HepG2 cell cytotoxicity, dose response, cytotoxicity control for Shn3 inhibitor project, CellTiter-Glo, cherry-picked (AID 624134); assay type: functional, cell-based
[28] = control 3'UTR Renilla luciferase suppression, dose response, counter-screen for Shn3 inhibitor project, cell-based, Clone20-Shn3RL, cherry-picked (AID 624133); assay type: functional
[29] = inhibitors of HIV Env-driven cell fusion, dose response, cherry-pick (AID 652057); assay type: functional, cell-based
[30] = ZM109 Env clade C HIV-1 fusion inhibitors, dose response, HeLa effector, CEM target cells, luciferase, cherry-pick (AID 652058); assay type: functional, cell-based
[31] = inhibitors of clade B AD8 Env fusion, dose response, cell-based, cherry-pick (AID 652062); assay type: functional;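 note: luciferase signal from cell-cell fusion driven by HIV-1 clade B AD8 Env; potency is for inhibitors of fusion seen as a drop in luminescence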
[32] = target: Heat shock protein HSP 90-alpha (Homo sapiens, UniProt P07900); assay type: functional, organism-based

Structure (SMILES): Cc1ccccc1Nc1nc(Cl)c(C=O)s1
- EC50 [1]: > 300 µM (not active)
- EC50 [2]: > 300 µM (not active)
- IC50 [3]: > 80 µM (inactive)

Structure (SMILES): Cc1cc(C(=O)COc2cccnc2[N+](=O)[O-])c(C)n1Cc1ccco1
- EC50 [4]: > 20 µM (inactive)
- IC50 [5]: 18.2 µM (active)
- IC50 [6]: > 20 µM (inactive)
- EC50 [7]: 13.1 µM (active)
- IC50 [8]: > 20 µM (inactive)
- IC50 [9]: > 20 µM (inactive)

Structure (SMILES): COc1ccccc1C(=O)NCc1ccc(-c2nc3ccccc3s2)cc1
- EC50 [10]: 15.2 µM (active)
- EC50 [4]: 6.77 µM (active)
- IC50 [5]: 1.93 µM (active)
- EC50 [11]: > 120 µM (not active)
- EC50 [12]: 0.312 µM (active)
- IC50 [6]: > 20 µM (inactive)
- EC50 [7]: 6.29 µM (active)
- IC50 [8]: 6.82 µM (inactive)
- IC50 [9]: > 20 µM (inactive)

Structure (SMILES): CSC1=NSC2=NC(=O)/C(=C\c3cccs3)C(=N)N12
- IC50 [13]: 32.2 µM (active)
- EC50 [14]: 8.94 µM (active)
- EC50 [15]: 0.418 µM (active)
- EC50 [16]: 75 µM (active)
- CC50 [17]: > 40 µM (active)
- CC50 [18]: > 20 µM (active)
- CC50 [19]: > 20 µM (active)

Structure (SMILES): O=C(NCCCN1CCCC1)c1cc2c(Cl)nc3ccccc3c2s1
- CC50 [17]: 38.7 µM (active)
- CC50 [18]: > 20 µM (active)
- CC50 [19]: > 20 µM (active)
- IC50 [20]: 30.8 µM (active)
- AC50 [21]: 7.11 µM (active)

Structure (SMILES): O=C(c1ccccc1)c1cccc(NC(=O)c2ccc(Br)o2)c1
- EC50 [22]: 7.3 µM (active)

Structure (SMILES): O=C(NC1CCCCC1)C(c1ccccc1)N(Cc1ccc2c(c1)OCO2)C(=O)c1cnsn1 (stereo not given)
- EC50 [22]: 4.5 µM (active)

Structure (SMILES): N=c1n(Cc2ccccc2)c2ccccc2n1CC(O)c1ccco1 (stereo not given)
- EC50 [23]: > 71.5 µM (inactive)

Structure (SMILES): COc1ccc(NC(=O)c2cc3c(Cl)nc4ccccc4c3s2)cc1OC
- EC50 [24]: 58.6 µM (active)
- EC50 [25]: 48.8 µM (active)
- IC50 [3]: > 80 µM (inactive)

Structure (SMILES): Cc1cc(Cl)c(S(=O)(=O)N2CCSCC2)cc1OCC(=O)NC1CCCCC1
- EC50 [4]: 2.58 µM (active)
- IC50 [5]: 4.29 µM (active)
- IC50 [6]: 9.2 µM (active)
- EC50 [7]: 7.37 µM (active)
- IC50 [8]: 3.6 µM (active)
- IC50 [9]: > 20 µM (inactive)
- AC50 [26]: 4.11 µM (active)
- AC50 [27]: 4.04 µM (active)
- AC50 [28]: 5.08 µM (active)
- AC50 [29]: 31.6 µM (active)
- AC50 [30]: 1.06 µM (active)
- AC50 [31]: 4.1 µM (active)

Structure (SMILES): Cc1ccc(CNC(=O)c2ccc(Cn3nc(C)c(Cl)c3C)o2)cc1
- EC50 [22]: 5.77 µM (active)
- AC50 [32]: 8.04 µM (active)
